Results from patent publication US6642228B1, “α1b-adrenergic receptor antagonists” (Toray Industries, Inc., priority 1999, dated 2003).
Structures can show the parent of a compound that is named as a salt.

How the values were obtained:
α1A adrenoceptor = target: T1, α1A adrenoceptor (Rattus norvegicus, UniProt P43140); assay: Binding to α1A adrenoceptor, [3H] prazosin, rat submaxillary gland crude membrane preparation; conditions: 0.5 nM [3H] prazosin, 25° C., 30 minutes
T1 construct: a 43,000×g precipitation fraction was prepared from a rat submaxillary gland, and this was used as a crude membrane preparation; from tissue; host or cells: submaxillary gland of Sprague-Dawley male rat, crude membrane preparation
T1 sequence (P43140 1-466): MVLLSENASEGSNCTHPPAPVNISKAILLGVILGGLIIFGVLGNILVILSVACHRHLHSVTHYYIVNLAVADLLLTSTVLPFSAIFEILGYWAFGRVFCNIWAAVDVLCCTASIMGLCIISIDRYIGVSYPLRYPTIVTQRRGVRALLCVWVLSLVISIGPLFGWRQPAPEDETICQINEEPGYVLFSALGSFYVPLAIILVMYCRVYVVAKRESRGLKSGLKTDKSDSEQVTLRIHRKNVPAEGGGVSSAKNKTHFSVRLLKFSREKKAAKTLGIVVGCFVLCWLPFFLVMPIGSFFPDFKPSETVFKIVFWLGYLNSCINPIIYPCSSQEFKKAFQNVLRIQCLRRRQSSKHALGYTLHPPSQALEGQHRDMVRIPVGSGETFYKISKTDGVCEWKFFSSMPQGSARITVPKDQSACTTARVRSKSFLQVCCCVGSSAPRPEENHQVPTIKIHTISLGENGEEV
Procedure: All experiments were performed at temperatures between 0° C. and 4° C. As an α1A adrenoceptor preparation, a 43,000×g precipitation fraction was prepared from a rat submaxillary gland, and this was used as a crude membrane preparation in the experiment.
A Sprague-Dawley male rat was exsanguinated under ether anesthesia, and the submaxillary gland was isolated, was weighed and was cut to pieces with scissors. The cut gland was put into a Potter-Elvehjem type Teflon homogenizer, and was homogenized with 5 times by volume (5 mL per 1 g of the wet weight of the submaxillary gland) of a 50 mM Tris-HCl buffer (pH=7.4) containing 5 mM EDTA, 0.2 mM DTT, and 0.1 mM PMSF. The resulting homogenate was allowed to pass through a nylon mesh and was centrifuged at 800×g for 10 minutes, and the resulting supernatant was centrifuged at 43,000×g for 15 minutes. The precipitate was suspended in a 50 mM Tris-HCl buffer (pH=7.4) (Buffer A) containing 10 mM MgCl2, 0.2 mM DTT, and 0.1 mM PMSF and was then centrifuged at 43,000×g for 15 minutes. The resulting precipitate was suspended in Buffer A to a protein concentration of about 10 mg/mL, and the suspension was used as the crude membrane preparation.
(§1) Each of the crude membrane preparations was dispensed and was stored at −80° C. and was subjected to the experiment on use. The protein concentration was determined by Lowry method using bovine serum albumin as a standard.
(§2) Buffer A (400 μL) containing 0.5 nM [3H] prazosin and 200 μg crude membrane preparation was used as a standard reaction solution. The receptor preparation and [3H] prazosin were incubated at 25° C. for 30 minutes, and 2 mL of cold Buffer A was added to terminate the reaction. […] The same experimental procedure was performed in the presence of 10 μM phentolamine to thereby determine a nonspecific binding activity. A specific binding activity was calculated by subtracting the nonspecific binding activity from the total binding activity.
(§3) A solution ofa test drug was prepared by dissolving the test drug to 10 mM in distilled water, ethanol, or DMSO, and serially diluting the solution with distilled water.
(§4) Kd values and Bmax values were determined using Scatchard plots. Dissociation constant Ki (riM) of each compound was determined according to the following equation.
(§5) Ki=IC50/[1+(radioactive ligand concentration/Kd)]

α1B adrenoceptor = target: T2, α1B adrenoceptor (Rattus norvegicus, UniProt P15823); assay: Binding to α1B adrenoceptor, [3H] prazosin, rat liver crude membrane preparation; conditions: 0.5 nM [3H] prazosin, 25° C., 30 minutes
T2 construct: a 100,000×g precipitation fraction was prepared from a rat liver and this was used as a crude membrane preparation; from tissue; host or cells: liver of Sprague-Dawley male rat, crude membrane preparation
T2 sequence (P15823 1-515): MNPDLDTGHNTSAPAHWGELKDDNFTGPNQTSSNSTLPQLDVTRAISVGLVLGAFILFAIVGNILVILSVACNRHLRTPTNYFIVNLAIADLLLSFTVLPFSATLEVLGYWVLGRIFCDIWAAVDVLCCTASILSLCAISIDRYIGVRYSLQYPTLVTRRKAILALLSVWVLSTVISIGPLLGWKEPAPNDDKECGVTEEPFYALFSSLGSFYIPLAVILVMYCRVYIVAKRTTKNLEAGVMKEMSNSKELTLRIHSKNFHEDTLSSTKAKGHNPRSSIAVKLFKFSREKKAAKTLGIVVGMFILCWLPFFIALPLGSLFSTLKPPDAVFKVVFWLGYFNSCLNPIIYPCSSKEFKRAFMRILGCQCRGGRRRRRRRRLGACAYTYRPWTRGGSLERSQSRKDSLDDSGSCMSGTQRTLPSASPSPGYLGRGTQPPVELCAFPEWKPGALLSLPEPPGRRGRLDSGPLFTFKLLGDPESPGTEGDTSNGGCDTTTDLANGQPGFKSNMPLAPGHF
Procedure: As an α1B adrenoceptor preparation, a 100,000×g precipitation fraction was prepared from a rat liver and this was used as a crude membrane preparation in the experiment.
A Sprague-Dawley male rat was exsanguinated under ether anesthesia, and the liver was isolated, was weighed and was cut into pieces with scissors. The cut liver was put into a Potter-Elvehjem type Teflon homogenizer, and was homogenized with 9 times by volume (9 mL per 1 g of the wet weight of the liver) of a 50 mM Tris-HCl buffer (pH 7.4) containing 0.25 M sucrose, 10 mM MgCl2, 1 mM EDTA, 0.2 mM DTT, and 0.1 mM PMSF. The homogenate was centrifuged at 800×g for 10 minutes, and the resulting supernatant was centrifuged at 100,000×g for 10 minutes, and the supernatant was then further centrifuged at 100,000×g for 60 minutes. The precipitate obtained by centrifugation was suspended in a 50 mM Tris-HCl buffer (pH=7.4) (Buffer A) containing 10 mM MgCl2, 0.2 mM DTT, and 0.1 mM PMSF to a protein concentration of about 10 mg/mL, and the suspension was used as the crude membrane preparation.
as §1, §2, §3, §4, §5

[1] = tested on: vasopressor response induced by phenylephrine (an α1 adrenoceptor agonist); assay: Inhibitory activity against vasopressor response induced by phenylephrine in rats under anesthesia; format: in vivo, rat; conditions: continuous i.v. infusion, 15 minutes after administration, phenylephrine 3 μg/kg, mean ± standard error
Procedure: The inhibitory activity of the α1B adrenoceptor antagonist according to Example 23 against vasopressor response induced by phenylephrine (an α1 adrenoceptor agonist) in rats under anesthesia was studied. […] The compound was dissolved in physiological saline, and was infused into the femoral vein at a rate of 20 μl/kg/min. Phenylephrine was dissolved in physiological saline and was bolus injected at a dose of 0.2 ml/kg (3 μg/kg). The inhibition rate was calculated according to the following equation.
Inhibition rate (7)=[1—(pressure increase induced by phenylephrine 15 minutes after administration of the example compound)/(pressure increase induced by phenylephrine before administration of the example compound)]×100

| SMILES | Ki (α1A adrenoceptor) [nM] | Ki (α1B adrenoceptor) [nM] | Inhibition rate ([1]; dose 0.1 mg/kg/min) [%] | Inhibition rate ([1]; dose 0.3 mg/kg/min) [%] | Inhibition rate ([1]; dose 1 mg/kg/min) [%] | Inhibition rate ([1]; dose 3 mg/kg/min) [%] |
| --- | --- | --- | --- | --- | --- | --- |
| c1ccc(C2CCN(CCCN3CCC(c4ccccc4)CC3)CC2)cc1 [Reference Example 21, 4-Phenyl-1-(3-(4-phenylpiperidyl)propyl)piperidine Hydrochloride, reference compound] | 870 | 860 | – | – | – | – |
| Fc1ccc2c(C3CCN(CCCN4Cc5ccccc5C4)CC3)c[nH]c2c1 [Example 23, 6-Fluoro-3-(1-(3-Isoindolin-2-ylpropyl)-4-piperidyl)indole Hydrochloride] | 18 | 0.79 | 24 ± 5 | 47 ± 5 | 72 ± 5 | 86 ± 2 |
| Fc1ccc2c(C3CCN(CCCN4CCCCC4)CC3)c[nH]c2c1 [Example 21, 6-Fluoro-3-(1i-(3-Piperidylpropyl)-4-piperidyl)indole Hydrochloride] | 21 | 0.63 | – | – | – | – |
| c1ccc2c(c1)CN(CCCN1CCC(c3c[nH]c4ccccc34)CC1)C2 [Example 14, 3-(1-(3-Isoindolin-2-ylpropyl)-4-piperidyl)indole Hydrochloride] | 50 | 3.6 | – | – | – | – |
| c1ccc2c(c1)CN(CCCCCN1CCC(c3c[nH]c4ccccc34)CC1)C2 [Example 16, 3-(1-(5-Isoindolin-2-ylpentyl)-4-piperidyl)indole] | 82 | 1.6 | – | – | – | – |
| c1ccc2c(c1)CN(CCCCN1CCC(c3c[nH]c4ccccc34)CC1)C2 [Example 15, 3-(1-(4-Isoindolin-2-ylbutyl)-4-piperidyl)indole Hydrochloride] | 30 | 1.4 | – | – | – | – |
